Reference: PMC8915600, “Optimization of experimental conditions for skin-PAMPA measurements” (ADMET & DMPK, 2020)
Like-named read-outs stand apart in the source and are kept apart here. Marks after values point to notes of the source that are not given here.

Assays:
[1] = cited from earlier work
[2] = in vitro; settings: PAMPA, pH 7.4, log Pe
[3] = skin-PAMPA permeability assay (gradient-pH, UPLC-DAD); settings: for Papp at 4 h, 50 μM / Papp at 24 h, 50 μM: PAMPA; for RM (membrane retention): mole fraction, neutral form
[4] = skin-PAMPA membrane stability after pre-treatment at basic pH; settings: membrane soaked at pH 7, 8, 9, 10 for 30 min or 4 h; then assay 4 h with stirring, donor pH 5, acceptor pH 7.4; versus untreated membrane
Experimental: Then, a standard permeation assay was carried out with an incubation time of 4 h and stirring at pH 5 in the donor compartment and pH 7.4 in the acceptor compartment. Simultaneously, permeation assays were also performed without the previous soaking treatment at basic pH.

[5] = cited from earlier work; remark: listed apart in the source
[6] = set-up: method as in earlier work; settings: octanol-water partition coefficient; cited from earlier work
[7] = logarithm of human skin permeation coefficient, neutral form, corrected for ionization in water and for temperature at 37 °C
[8] = pH 7.4, log Pe, optimized assay conditions (4 h incubation, stirring), measured at the pH corresponding to the neutral form, acceptor pH 7.4
[9] = optimized assay conditions (4 h incubation, stirring), measured at the pH corresponding to the neutral form, acceptor pH 7.4

For Oc1ccc(Cl)cc1Cl [2,4-Dichlorophenol], the “log Kp” value [1, 7] is listed as -4.30 cm/s and the Papp at 4 h, 50 μM [2] is listed as 120 ×10⁻⁶ cm/s.

For Cc1ccc(C(C)C)c(O)c1 [2-Isopropyl-5-Methylphenol (Thymol), 2-Isopropyl-5-Methylphenol], the “log Kp” value [1, 7] is listed as -4.35 cm/s and the Papp at 4 h, 50 μM [3, 8] is listed as 97.7 ×10⁻⁶ cm/s.

With Cc1ccccc1N [2-toluidine] the “change of skin-PAMPA log Pe after membrane treatment at basic pH” value [4] was “remain constant”.

In the case of Cc1cccc(O)c1 [3-Methylphenol (m-Cresol), 3-Methylphenol], the “log Kp” value [1, 7] is listed as -4.89 cm/s and the Papp [2, 9] is listed as 46.8 ×10⁻⁶ cm/s.

For Nc1ccc(O)c([N+](=O)[O-])c1 [4-Amino-2-nitrophenol], the “log Kp” value [1, 7] is listed as -5.91 cm/s and the Papp at 4 h, 50 μM [3, 8] is listed as 25.7 ×10⁻⁶ cm/s.

In the case of Oc1ccc(Cl)cc1 [4-Chlorophenol], the “log Kp” value [1, 7] is given as -4.52 cm/s.

In the case of CCc1ccc(O)cc1 [4-Ethylphenol], the “log Kp” value [1, 7] is listed as -4.53 cm/s and the Papp at 4 h, 50 μM [3, 8] is listed as 64.6 ×10⁻⁶ cm/s.

For COC(=O)Cc1ccc(O)cc1 [4-Hydroxy-methylphenylacetate], the “log Kp” value [1, 7] is listed as -5.26 cm/s and the “log Pe” value [3, 9] is listed as -5.07±0.09 cm/s.

For OCc1ccc(O)cc1 [4-Hydroxybenzyl alcohol], the “log Kp” value [1, 7] is listed as -6.26 cm/s and the Papp at 4 h, 50 μM [3, 8] is listed as 1.41 ×10⁻⁶ cm/s.

In the case of NC(=O)Cc1ccc(O)cc1 [4-Hydroxyphenylacetamide], the “log Kp” value [1, 7] is listed as -6.89 cm/s and the Papp at 4 h, 50 μM [3, 8] is listed as 0.851 ×10⁻⁶ cm/s.

For O=[N+]([O-])c1ccc(O)cc1 [4-Nitrophenol], the “log Kp” value [1, 7] is listed as -5.33 cm/s and the Papp [2, 9] is listed as 12.3 ×10⁻⁶ cm/s.

In the case of CCC1(CC)C(=O)NC(=O)NC1=O [5,5-Diethylbarbituric acid (Barbital), 5,5-Diethylbarbituric acid], the “log Kp” value ([1]; human) is given as -7.29 cm/s and the Papp [2] is given as 1.78 ×10⁻⁶ cm/s.

For CCC1(c2ccccc2)C(=O)NC(=O)NC1=O [5-Ethyl-5-phenylbarbituric acid], the “log Kp” value ([1]; human) is listed as -6.68 cm/s and the Papp [2] is listed as 0.891 ×10⁻⁶ cm/s.

In the case of O=c1[nH]cc(F)c(=O)[nH]1 [5-Fluorouracil], the pKa [5] is given as 7.86 ^a, the “log Po/w” value [6] is given as -0.89 and the “log Kp” value [1, 7] is given as -6.82 cm/s. The Papp at 4 h, 50 μM ([3]; log Pe, with stirring, 4 h incubation, neutral form (donor pH 3.0, aminopyrine pH 7.0), acceptor pH 7.4, 32 °C) was 1.7 ×10⁻⁶ cm/s, the Papp at 24 h, 50 μM ([3]; log Pe, with stirring, 24 h incubation, neutral form (donor pH 3.0, aminopyrine pH 7.0), acceptor pH 7.4, 32 °C) was 0.692 ×10⁻⁶ cm/s and the Papp at 4 h, 50 μM ([3]; log Pe, without stirring, 4 h incubation, neutral form (donor pH 3.0, aminopyrine pH 7.0), acceptor pH 7.4, 32 °C) was 0.339 ×10⁻⁶ cm/s. For the same molecule, the Papp at 24 h, 50 μM ([3]; log Pe, without stirring, 24 h incubation, neutral form (donor pH 3.0, aminopyrine pH 7.0), acceptor pH 7.4, 32 °C) was 0.851 ×10⁻⁶ cm/s, the “RM (membrane retention)” value ([3]; with stirring, 30 min incubation) was 0.00 and the “RM (membrane retention)” value ([3]; with stirring, 4 h incubation) was 0.04(±0.04). The “RM (membrane retention)” value ([3]; with stirring, 24 h incubation) was 0.08(±0.03), the “RM (membrane retention)” value ([3]; without stirring, 30 min incubation) was 0.00 and the “RM (membrane retention)” value ([3]; without stirring, 4 h incubation) was 0.01(±0.03). For the same molecule, the “RM (membrane retention)” value ([3]; without stirring, 24 h incubation) was 0.05(±0.02), the “log Pe” value [3, 9] was -5.77±0.02 cm/s and the “log Pe” value ([3]; without stirring, 4 h incubation, neutral form (donor pH 3.0, aminopyrine pH 7.0), acceptor pH 7.4, 32 °C) was -6.47 cm/s.

Work on COc1c2occc2cc2ccc(=O)oc12 [8-Methoxypsoralen] yielded a Papp at 4 h, 50 μM [3, 8] of 50.1 ×10⁻⁶ cm/s.

In the case of Cc1c(N(C)C)c(=O)n(-c2ccccc2)n1C [Aminopyrine], the pKa ([5]; aqueous) is given as 5.00 ^b and the “log Kp” value [1, 7] is given as -6.55 cm/s.

In the case of Nc1ccccc1 [Aniline], the “log Kp” value ([1]; human) is listed as -4.94 cm/s and the Papp [2] is listed as 28.2 ×10⁻⁶ cm/s.

In the case of O=C(OCc1ccccc1)c1cccnc1 [Benzyl nicotinate], the “log Kp” value [1, 7] is listed as -4.87 cm/s and the Papp at 4 h, 50 μM [3, 8] is listed as 69.2 ×10⁻⁶ cm/s.

In the case of Cn1c(=O)c2c(ncn2C)n(C)c1=O [Caffeine], the “log Kp” value [1, 7] is listed as -6.85 cm/s.
